47 molecules from publication PMC6627609, “Targeting Quorum Sensing: High-Throughput Screening to Identify Novel LsrK Inhibitors” (International Journal of Molecular Sciences, 2019) can be followed below.

Counter-ions that a name gives are not always drawn.

The target of the first assay is LsrK (Salmonella typhimurium, UniProt Q8ZKQ6). The assay is described as follows: biochemical. Format: biochemical, S. typhimurium.
Chain of LsrK (Q8ZKQ6 whole entry): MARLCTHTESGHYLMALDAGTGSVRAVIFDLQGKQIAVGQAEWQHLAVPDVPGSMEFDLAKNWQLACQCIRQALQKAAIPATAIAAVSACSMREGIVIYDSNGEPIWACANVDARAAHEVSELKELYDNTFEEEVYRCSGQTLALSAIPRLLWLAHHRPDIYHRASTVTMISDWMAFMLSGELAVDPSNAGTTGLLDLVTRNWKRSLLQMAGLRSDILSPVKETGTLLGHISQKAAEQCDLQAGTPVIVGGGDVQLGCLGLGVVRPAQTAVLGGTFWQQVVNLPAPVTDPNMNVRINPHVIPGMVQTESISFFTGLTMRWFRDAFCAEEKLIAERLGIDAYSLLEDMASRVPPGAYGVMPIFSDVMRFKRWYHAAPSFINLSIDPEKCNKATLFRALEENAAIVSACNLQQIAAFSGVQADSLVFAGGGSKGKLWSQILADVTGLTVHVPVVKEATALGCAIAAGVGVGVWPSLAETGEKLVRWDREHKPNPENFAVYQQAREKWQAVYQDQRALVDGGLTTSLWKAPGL
Details: not given
As usually defined, the inhibition is the relative decrease from the control value, in per cent. Turning to `CC(NCCC(c1ccccc1)c1ccccc1)c1ccccc1` (stereo not drawn) [FENDILINE HYDROCHLORIDE], the inhibition at 50 µM was 0%. Turning to `C=CCc1ccccc1OCC(O)CNC(C)C` (stereo not drawn) [ALPRENOLOL], the inhibition at 50 µM came to 0%.

As for `COc1ccc2c(c1)CC[C@@H]1[C@@H]2CC[C@]2(C)[C@@H](O)CC[C@@H]12` [ESTRADIOL METHYL ETHER], the inhibition at 50 µM was 3%. Still for that read-out and setting: next, `C[C@H]1CC[C@]2(NC1)O[C@H]1C[C@H]3[C@@H]4CC[C@H]5C[C@@H](O[C@@H]6O[C@H](CO)[C@H](O[C@@H]7O[C@H](CO)[C@@H](O)[C@H](O[C@@H]8OC[C@@H](O)[C@H](O)[C@H]8O)[C@H]7O[C@@H]7O[C@H](CO)[C@@H](O)[C@H](O)[C@H]7O)[C@H](O)[C@H]6O)CC[C@]5(C)[C@H]4CC[C@]3(C)[C@H]1[C@@H]2C` [TOMATINE]: 2%; `CC(=O)N[C@@H](CC(C)C)C(=O)O` [ACETYL-L-LEUCINE]: 0%; `CC(=O)Oc1cccc(O)c1` [RESORCINOL MONOACETATE]: 1%. Consider `O=c1cc(-c2ccccc2)oc2cc(O)cc(O)c12` [CHRYSIN], for which the inhibition at 50 µM was found to be 3%. Turning to `CC(=O)Oc1cc(-c2coc3cc(OC(C)=O)c(OC(C)=O)c(OC(C)=O)c3c2=O)cc(OC(C)=O)c1OC(C)=O` [IRIGINOL HEXAACEATATE], the inhibition at 50 µM stood at 114%. With `N=C(N)N/N=C/c1c(Cl)cccc1Cl` [GUANABENZ ACETATE], the inhibition at 50 µM is 0%. For `NC(=O)c1ncn([C@@H]2O[C@H](CO)[C@@H](O)[C@H]2O)n1` [RIBAVIRIN], the inhibition at 50 µM worked out at 5%. As for `COc1ccc(-c2c(O)c3c(OC)c4c(cc3oc2=O)OC(C)(C)C=C4)cc1` [ROBUSTIC ACID], the inhibition at 50 µM is 111%. `COc1ccc2c(c1OC)C(=O)O[C@@H]2[C@H]1c2c(cc3c(c2OC)OCO3)CCN1C` [NOSCAPINE HYDROCHLORIDE]: the inhibition at 50 µM was 1%. Take `CC1=C(CCC(=O)O)c2cc3[nH]c(cc4nc(cc5[nH]c(cc1n2)c(C)c5C(C)O)C(C)=C4C(C)O)c(C)c3CCC(=O)O` (stereo not drawn) [HAEMATOPORPHYRIN]: the inhibition at 50 µM was determined as 55%. On the same count and under the same terms, next, `COc1ccc2cc3[n+](cc2c1OC)CCc1cc2c(cc1-3)OCO2` [BERBERINE CHLORIDE]: 1%; `Oc1c(I)cc(Cl)c2cccnc12` [CLIOQUINOL]: 1%. The same measure, in the same setting: with `Cc1cnc(NC(=O)C2=C(O)c3ccccc3S(=O)(=O)N2C)s1` [MELOXICAM SODIUM] the figure was 0%. Turning to `COc1ccc(C(=O)N2CCCC2=O)cc1`, the inhibition at 50 µM came to 0%.

For the molecule `COc1ccc(-c2coc3cc(O)ccc3c2=O)c(O)c1O` [KOPARIN], the inhibition at 50 µM was found to be 118%. For `Cc1ncc(CSSCc2cnc(C)c(O)c2CO)c(CO)c1O` [PYRITINOL], the inhibition at 50 µM came out at 1%. The same measure, in the same setting: next, `CNC(=O)Oc1ccc2c(c1)[C@]1(C)CCN(C)[C@@H]1N2C` [PHYSOSTIGMINE SALICYLATE]: 1%; `Cc1ccc(Cl)c(Nc2ccccc2C(=O)O)c1Cl` [MECLOFENAMATE SODIUM]: 6%. Still for that read-out and setting: with `CC(=O)N[C@@H](Cc1c[nH]c2ccccc12)C(N)=O` [ACETYLTRYPTOPHANAMIDE] the figure was 1%; with `CCCCC1(COC(=O)CCC(=O)O)C(=O)N(c2ccccc2)N(c2ccccc2)C1=O` [SUXIBUZONE], 8%; with `O=C(O)CCC(=O)c1ccc(-c2ccccc2)cc1` [FENBUFEN], 2%. Consider `C=CCCCCCCCCC(=O)O` [UNDECYLENIC ACID], for which the inhibition at 50 µM was 1%. Still for that read-out and setting: next, `CCCCC(=O)O[C@H]1CC[C@H]2[C@@H]3CCc4cc(O)ccc4[C@H]3CC[C@]12C` [ESTRADIOL VALERATE]: 3%; `Oc1ccc(Cl)cc1Cc1cc(Cl)ccc1O` [DICHLOROPHENE]: 1%; `N[C@@H](CCC(=O)N[C@@H](CS)C(=O)NCC(=O)O)C(=O)O` [GLUTATHIONE]: 1%. In the case of `CC1=C(C(=O)O)N2C(=O)[C@@H](NC(=O)[C@H](N)c3ccc(O)cc3)[C@H]2SC1` [CEFADROXIL], the inhibition at 50 µM was 1%.

Take `Cc1ccc(/N=C/N(C)/C=N/c2ccc(C)cc2C)c(C)c1` [AMITRAZ]: the inhibition at 50 µM turned out to be 1%. On the same count and under the same terms, with `C=C1[C@H]2CC[C@@]3(C)[C@H](c4ccoc4)OC(=O)C[C@]13O[C@H]1C[C@H](O)C(C)(C)[C@H](CC(=O)OC)[C@]12C` [3-DEOXY-3beta-HYDROXY[…] METHYL ESTER] the figure was 1%. On the same count and under the same terms, with `COC(=O)[C@H]1[C@H]2C[C@@H]3c4[nH]c5cc(OC)ccc5c4CCN3C[C@H]2C[C@@H](OC(=O)c2cc(OC)c(OC)c(OC)c2)[C@@H]1OC` [RESERPINE] the figure was 1%; with `CCOC(=O)[C@H](CCc1ccccc1)N[C@@H](C)C(=O)N1[C@H](C(=O)O)C[C@@H]2CCC[C@@H]21`, 3%.

As for `CN1CCCC(n2nc(Cc3ccc(Cl)cc3)c3ccccc3c2=O)CC1` (stereo not drawn) [AZELASTINE HYDROCHLORIDE], the inhibition at 50 µM was 1%. `O=C1c2ccccc2C(=O)c2ccccc21` [ANTHRAQUINONE]: the inhibition at 50 µM was 0%. Take `O=c1c(O)cc([C@H]2Oc3cc(O)cc(O)c3C[C@H]2O)cc2c([C@H]3Oc4cc(O)cc(O)c4C[C@H]3O)cc(O)c(O)c12` [THEAFLAVIN]: the inhibition at 50 µM is 133%. The same measure, in the same setting: with `COc1cc2c(cc1OC)[C@@]13CCN4CC5=CCO[C@H]6CC(=O)N2[C@H]1[C@H]6[C@H]5C[C@H]43` [BRUCINE] the figure was 2%; with `CC(C)(Oc1ccc(CCNC(=O)c2ccc(Cl)cc2)cc1)C(=O)O` [BEZAFIBRATE], 2%. On to `Nc1ccc(S(=O)(=O)Nc2cnc3ccccc3n2)cc1` [SULFAQUINOXALINE SODIUM], for which the inhibition at 50 µM is 1%.

Staying with this assay, now noted: 50 µM.
Consider `Cl.c1cnc(N2CCN(Cc3ccc4c(c3)OCO4)CC2)nc1` [PIRIBEDIL HYDROCHLORIDE], for which the “Inhibition (%)” value amounted to 3. Still for that read-out and setting: next, `CCOc1ccc(C(=O)c2ccc(O)c(O)c2O)cc1` [2.3.4-TRIHYDROXY-4'-ETHOXYBENZOPHENONE]: 79; `COc1cc(O)c(C(=O)/C=C/c2ccc(O)c(OC)c2)c(OC)c1` [2'.4-DIHYDROXY-3.4'.6'-TRIMETHOXYCHALCONE]: 1; KHAYANTHONE: 11. The same measure, in the same setting: with `CC(=O)O[C@H]1[C@H]2[C@@H](OC(=O)Cc3ccccc3)[C@@H](C)C[C@]2(OC(C)=O)C(=O)/C(C)=C/[C@@H]2[C@H](CC[C@@]13CO3)C2(C)C` [EUPHORBIASTEROID] the figure was 1. For `C/C1=C2/[N-][C@H]([C@H](CC(N)=O)[C@@]2(C)CCC(=O)NC[C@@H](C)OP(=O)([O-])O[C@H]2[C@@H](O)[C@@H](n3cnc4cc(C)c(C)cc43)O[C@@H]2CO)[C@]2(C)N=C(/C(C)=C3N=C(/C=C4N=C1[C@@H](CCC(N)=O)C\4(C)C)[C@@H](CCC(N)=O)[C@]\3(C)CC(N)=O)[C@@H](CCC(N)=O)[C@]2(C)CC(N)=O.[CH2-][C@H]1O[C@@H](n2cnc3c(N)ncnc32)[C@H](O)[C@@H]1O.[Co]` [COENZYME B12], the “Inhibition (%)” value is on record as 20. Turning to `Cc1c[nH]c2ccccc12` [SKATOLE], the “Inhibition (%)” value is listed as 1. With `CCOc1nc2cccc(C(=O)OC(C)OC(=O)OC3CCCCC3)c2n1Cc1ccc(-c2ccccc2-c2nn[nH]n2)cc1` (stereo not drawn) [CANDESARTAN CILEXTIL, reference compound], the “Inhibition (%)” value was determined as 101.

Still in this assay, the particulars now being: read-out: IC50 against LsrK.
A word on the IC50: it is the concentration that inhibits the measured activity by half. Regarding `CCOc1nc2cccc(C(=O)OC(C)OC(=O)OC3CCCCC3)c2n1Cc1ccc(-c2ccccc2-c2nn[nH]n2)cc1` (stereo not drawn) [CANDESARTAN CILEXTIL, reference compound], the IC50 amounted to 14 µM.
